Source: patent US20240082234A1, “APPLICATION OF CILOSTAZOL-CONTAINING COMPOSITION IN PREPARING DRUG FOR TREATING CEREBROVASCULAR DISEASE” (NEURODAWN PHARMACEUTICAL CO., LTD., priority 2021, published 2024)

Tests used:
[1] = tested on: rats with focal cerebral ischemia-reperfusion injury; assay: rat focal cerebral ischemia-reperfusion model (internal carotid artery suture method), area of cerebral infarction by TTC staining; format: in vivo, Sprague-Dawley (SD) rats; conditions: for Area of cerebral infarction (%): single i.v. dose after reperfusion, 24 h after ischemia, (+)-2-borneol 1 mg/kg; for area of cerebral infarction of MCAO rats (in words) / neurological deficits of MCAO rats (in words): summary, tail vein, cilostazol 1-18 mg/kg, (+)-2-borneol 0.27-5 mg/kg
Experimental: After the cerebral ischemia model was established, the animals were assigned to each group in a single-blind manner with equal probability. After reperfusion, the animals were immediately administered intravenously with the drugs once. The animals in the model group were administered with an equal volume of normal saline. The animals were sacrificed 24 hours after cerebral ischemia, and their brains were taken out, stained, and photographed for determining the area of cerebral infarction. The rat focal cerebral ischemia-reperfusion model was established by internal carotid artery suture method. The limbs (hind limbs above the knee joint and forelimbs below the wrist joint) and head of an anesthetized rat were tightened with rubber bands. The animal was fixed on an operating table in supine position, and was shaved with an animal shaver from the head to the chest, and the skin was disinfected with alcohol. The neck of the rat was cut at the midline, and the subcutaneous tissue was bluntly separated. The thin layer of fascia on the surface of the anterior triangle of the neck was separated, the lower side-lower edge of the clavicular hyoid muscle was pulled up, and the longitudinally pulsating artery parallel to this muscle can be seen. The arterial shell was opened, and the bifurcation of the right carotid artery was exposed. The right common carotid artery, external carotid artery and internal carotid artery were separated. The vagus nerve was gently stripped, and the external carotid artery was ligated and cut. The proximal end of the common carotid artery was clamped. An incision was made at the distal end from the ligature of the external carotid artery, and was inserted with a suture line, which was passed through the bifurcation of the common carotid artery into the internal carotid artery, and then was inserted slowly until reaching slight resistance (approximately 20 mm from the bifurcation), so as to block all blood supply to the middle cerebral artery. The suture line was slightly fixed below the incision of the external carotid artery with silk thread. The silk thread clamping the proximal end of the common carotid artery was loosened. A gauze soaked in sterile saline was covered on the wound, and the rat was placed on a heat preservation pad to keep warm. 2.0 h after cerebral ischemia on the right side, the suture line was pulled out gently to restore the blood supply for reperfusion. The external carotid artery was ligated with silk thread fixing the suture line. The skin was stitched, and disinfected. The rats were placed in clean feed, and their general condition and respiration were observed until they woke up from anesthesia. The rats were provided with food and water, and commonly reared. The animals were subjected to evaluation of neurological deficit symptoms and then sacrificed with CO2. The brain was taken out by cutting off head. The olfactory bulb, cerebellum and lower brainstem were removed. The blood on the surface of the brain was washed with normal saline, and the residual water on the surface was removed. The brain was placed at -20° C. for 20 min, then taken out, immediately cut to a coronal section vertically downward at the crossing plane of the line of sight, and sliced backward every 2 mm. The brain slices were incubated in 1% TTC staining solution (at 37° C. for 30 min). The normal brain tissue was stained into dark red, and the ischemic brain tissue was stained into pale white. After being washed with normal saline, the brain slices were quickly arranged in a row from front to back, removed off the residual water on the surface, and photographed. Calculation of area of cerebral infarction: The photos were processed by Image J software, and the corresponding area of left brain and non-infarction area of right brain were calculated according to the formula, so that the percentage of the area of infarction was calculated. […]

[2] = tested on: mice with focal cerebral ischemia-reperfusion injury; assay: mouse focal cerebral ischemia-reperfusion model (internal carotid artery suture method), area of cerebral infarction by TTC staining; format: in vivo, C57BL/6J mice; conditions: summary; intravenous; cilostazol 10-19.46 mg/kg, (+)-2-borneol 0.54-10 mg/kg
Experimental: The animals were subjected to evaluation of neurological deficit symptoms and then sacrificed with CO2. The brain was taken out by cutting off head. The olfactory bulb, cerebellum and lower brainstem were removed. The blood on the surface of the brain was washed with normal saline, and the residual water on the surface was removed. The brain was placed at −20° C. for 20 min, then taken out, immediately cut to a coronal section vertically downward at the crossing plane of the line of sight, and sliced backward every 2 mm. The brain slices were incubated in 1% TTC staining solution (at 37° C. for 30 min). The normal brain tissue was stained into dark red, and the ischemic brain tissue was stained into pale white. After being washed with normal saline, the brain slices were quickly arranged in a row from front to back, removed off the residual water on the surface, and photographed. Calculation of area of cerebral infarction: The photos were processed by Image J software, and the corresponding area of left brain and non-infarction area of right brain were calculated according to the formula, so that the percentage of the area of infarction was calculated. The experimental animals were divided into 4 groups, a model group and three groups of compositions of cilostazol/(+)-2-borneol (respectively a group of cilostazol 10 mg/kg+(+)-2-borneol 10 mg/kg in 1:1: a group of cilostazol 15 mg/kg+(+)-2-borneol 5 mg/kg in 3:1; a group of cilostazol 18 mg/kg+(+)-2-borneol 2 mg/kg in 9:1, and each composition was administered at a total amount of 20 mg/kg). After the cerebral ischemia model was established, the animals were assigned to each group in a single-blind manner with equal probability. After reperfusion, the animals were immediately administered intravenously with the drugs once. The animals in the model group were administered with an equal volume of normal saline. The animals were sacrificed 24 hours after cerebral ischemia, and their brains were taken out, stained, and photographed for determining the area of cerebral infarction. Establishment of focal cerebral ischemia-reperfusion model: The mouse focal cerebral ischemia-reperfusion model was established by internal carotid artery suture method. An anesthetized mouse was fixed on an operating table in a supine position. The neck of the mice was cut at the midline, and the subcutaneous tissue was bluntly separated. The right common carotid artery, external carotid artery, and internal carotid artery were separated. […]

plasma protein = conditions: background statement; cited from earlier work
[3] = Example 1, cilostazol 1 mg/kg (p=0.06), (+)-2-borneol 1 mg/kg (p<0.01), composition 1+1 mg/kg (p<0.001), vs model group
[4] = Example 1, cilostazol 1 mg/kg, composition 2 mg/kg (1+1), model group 39.73 ± 7.62
[5] = Example 2, cilostazol 9 mg/kg (p=0.024), (+)-2-borneol 1 mg/kg (p=0.017), composition 9+1 mg/kg (p=0.000)
[6] = Example 2, cilostazol 9 mg/kg, composition 10 mg/kg (9+1), model group 38.25 ± 7.87
[7] = Example 3, cilostazol 18 mg/kg (p=0.001), (+)-2-borneol 1 mg/kg (p=0.002), composition 18+1 mg/kg (p=0.000)
[8] = Example 3, cilostazol 18 mg/kg, composition 19 mg/kg (18+1), model group 40.32 ± 7.65

CC1(C)C2CCC1(C)C(O)C2 (single isomer, unassigned; (+)) [(+)-2-Borneol]
effect on the area of cerebral infarction (in words) [1, 3]: significantly reduce the area of cerebral infarction | Area of cerebral infarction (%) [1, 4]: 28.28 ± 8.06 % | effect on the area of cerebral infarction (in words) [1, 5]: significantly reduce the area of cerebral infarction | Area of cerebral infarction (%) [1, 6]: 28.62 ± 9.87 % | effect on the area of cerebral infarction (in words) [1, 7]: significantly reduce the area of cerebral infarction | Area of cerebral infarction (%) [1, 8]: 29.97 ± 7.02 % | area of cerebral infarction of MCAO rats (in words) [1]: reduce the area of cerebral infarction | neurological deficits of MCAO rats (in words) [1]: significantly ameliorate the neurological deficits | area of cerebral infarction in MCAO mice (in words) [2]: reduce the area of cerebral infarction | neurological deficits in MCAO mice (in words) [2]: significantly ameliorate the neurological deficits

O=C1CCc2cc(OCCCCc3nnnn3C3CCCCC3)ccc2N1 [Cilostazol]
effect on the area of cerebral infarction (in words) [1, 3]: tended to alleviate cerebral ischemic injury, but showed no statistical difference | Area of cerebral infarction (%) [1, 4]: 33.78 ± 5.74% | effect on the area of cerebral infarction (in words) [1, 5]: significantly reduce the area of cerebral infarction | Area of cerebral infarction (%) [1, 6]: 30.00 ± 8.43 % | effect on the area of cerebral infarction (in words) [1, 7]: significantly reduce the area of cerebral infarction | Area of cerebral infarction (%) [1, 8]: 27.84 ± 7.50 % | area of cerebral infarction of MCAO rats (in words) [1]: reduce the area of cerebral infarction | neurological deficits of MCAO rats (in words) [1]: significantly ameliorate the neurological deficits | area of cerebral infarction in MCAO mice (in words) [2]: reduce the area of cerebral infarction | neurological deficits in MCAO mice (in words) [2]: significantly ameliorate the neurological deficits | binding rate to plasma protein (plasma protein): about 95%
